Laboratory results published in paper PMC3938390 (Biochemistry, 2013).
Where two headings read alike, the source gives them in different places.

Legend:
CB1 = CB1 (Homo sapiens, UniProt P21554); type: binding
CB1^WT = CB1^WT (Homo sapiens, UniProt P21554); conditions: [3H]CP55940 binding
C98A,C107ACB1^WT = C98A,C107ACB1^WT (Homo sapiens, UniProt P21554, C107A/C98A); conditions: [3H]CP55940 binding, N-terminal C98-C107 disulfide removed by mutation
[1] = CB1^WT treated with 10 mM DTT for 20 min prior to assay

Chain of CB1^WT (P21554 whole entry): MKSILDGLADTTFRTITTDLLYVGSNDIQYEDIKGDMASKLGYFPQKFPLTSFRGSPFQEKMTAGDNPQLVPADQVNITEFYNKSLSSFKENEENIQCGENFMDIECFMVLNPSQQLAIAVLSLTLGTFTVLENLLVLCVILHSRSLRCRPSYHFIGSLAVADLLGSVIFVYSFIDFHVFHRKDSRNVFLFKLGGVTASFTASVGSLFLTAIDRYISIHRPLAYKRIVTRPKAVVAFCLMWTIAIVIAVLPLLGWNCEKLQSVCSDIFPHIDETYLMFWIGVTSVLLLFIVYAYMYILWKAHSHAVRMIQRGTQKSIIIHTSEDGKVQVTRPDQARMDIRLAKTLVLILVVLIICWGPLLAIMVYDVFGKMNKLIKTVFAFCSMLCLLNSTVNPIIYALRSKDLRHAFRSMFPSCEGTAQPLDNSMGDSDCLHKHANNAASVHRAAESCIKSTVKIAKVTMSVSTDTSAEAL
Chain of CB1 (P21554 whole entry): as above
Chain of C98A,C107ACB1^WT (P21554 whole entry C98A/C107A): as the sequence (P21554 whole entry) above, with C98A, C107A counted along it

Row | SMILES | cooperativity factor α between orthosteric ligand and DTT (CB1) | allosteric cooperativity factor α for agonist binding (CB1^WT; [1]) | allosteric cooperativity factor α for agonist binding (CB1^WT; untreated CB1^WT) | allosteric cooperativity factor α for agonist binding (C98A,C107ACB1^WT)
1 | CCCCCCC(C)(C)c1ccc([C@@H]2C[C@H](O)CC[C@H]2CCCO)c(O)c1 [CP55940, (-)-cis-3-[2-hydroxy-4-(1,1-dimethyl-heptyl)phenyl]-trans-4-(3-hydroxypropyl)cyclohexanol] | 0.69 ± 0.08 |  |  | 
2 | CCc1c(C(=O)NCCc2ccc(N3CCCCC3)cc2)[nH]c2ccc(Cl)cc12 [Org 27569] |  | 6.8 ± 0.3 | 4.9 ± 0.4 | 7.8 ± 0.5
3 | O=C(Nc1ccc(Cl)cc1)Nc1cccc(-c2cccc(N3CCCC3)n2)c1 [PSNCBAM-1, 1-(4-chlorophenyl)-3-[3-(6-pyrrolidin-1-ylpyridin-2-yl)phenyl]urea] |  | 5.9 ± 0.3 | 4.2 ± 0.2 | 
